Reference: patent US20040101578A1, “Compositon containg ginkgo biloba that inhibit angiogenesis and matrix metalloprotinase” (priority 2003, published 2004)

Tested on: human umbilical vein endothelial cells (HUVEC)
Assay: Tube formation of HUVEC grown with Matrigel
Format: cell-based
Settings: for Area of the tube: 50 μM compound in DMSO, DMSO control 88; for Area of the tube %: DMSO control = 100; for inhibition at 50 µM: Homo sapiens, HUVEC, read-out: percent inhibition of the tube formation
Description: In order to do the tube formation assay, blood vessel endothelial cells, that Is, human umbilical vein endothellal cells (HUVECs), were isolated. HUVECs were isolated from freshly obtained cords after cesarean section, and they were grown and identified by immunocytochemial staining with anti-Factor Vil antibody. HUVECs grown with Matrigel (BD Bioscience, Bedford, Mass., USA), were treated with 0.4 μg/μl of the above Ginkgo biloba leaf extract (Hwa II Pharmaceutical Co., LTD, Korea) of the EXAMPLE 1, and further incubated at 37° C. for […]. As a control, the procedure was repeated without Ginkgo biloba leaf extract.
The area of the tube was determined by the image analysis program Image-Pro Plus (Media Cybernetics, USA), and as summarized in Table I, tube formation after treatment of Ginkgo biloba leaf extract was inhibited by about 60% as compared with the untreated control.
Representative compounds from Ginkgo biloba, quercetin (Sigma Cat No. Q0125) and kaempferol (Indofine Chemical Cat No. K-102) as flavonoids, amentoflavon (Indofine Chemical Cat No. 021101S) as a biflavonoid and ginkolide A (Sigma Cat No. G4028) as a terpene-lactone, were subjected to the tube formation assay as described in EXAMPLE 1.
Since the above chemicals are not soluble in water, they were dissolved on dimethyl sulfoxide (DMSO), and in order to exclude the effect of solvent for these compounds, HUVECs treated with the same amount of DMSO were used as a control. FIG. 6 is a picture of the 1% DMSO-treated HUVEC control, and FIGS. 7-10 are pictures showing the effect on tube formation of individual compounds (quercetin, kaempferol, amentoflavon, and ginlkolide A, respectively). At 50 μM concentration, the order of inhibitory effect on HUVEC tube formation was quercetin>kaempferol>amentoflavon>ginkgolide A. Ginkgolide A was not effective even at 1 mM concentration.
Therefore, not biflavonoids but flavonoids such as quercetin and kaempferol, are the major component for angiogenesis inhibition in Ginkgo biloba leaf extract.

[1] = 50 μM compound, versus DMSO control

Row | SMILES | Area of the tube | percent inhibition of the tube formation [1] | Area of the tube % (50 μM compound) [%] | effect on HUVEC tube formation (1 mM concentration) | inhibition at 50 µM [1] [%]
1 | O=c1cc(-c2ccc(O)c(-c3c(O)cc(O)c4c(=O)cc(-c5ccc(O)cc5)oc34)c2)oc2cc(O)cc(O)c12 [Amentoflavon, amentoflavon] | 48 | 45 | 55 |  | 
2 | C[C@@H]1C(=O)O[C@H]2C[C@@]34[C@H]5C[C@@H](C(C)(C)C)[C@]36[C@@H](OC(=O)[C@@H]6O)O[C@@]4(C(=O)O5)[C@]21O [Ginkgolide A, ginkolide A] |  |  |  | not effective | 
3 | O=c1c(O)c(-c2ccc(O)cc2)oc2cc(O)cc(O)c12 [Kaempferol, kaempferol] | 24 |  | 27 |  | 73
4 | O=c1c(O)c(-c2ccc(O)c(O)c2)oc2cc(O)cc(O)c12 [Quercetin, quercetin] | 6.6 |  | 7.5 |  | 93
